Reference: ChEMBL document CHEMBL4619726, “Synthesis of novel tryptanthrin derivatives as dual inhibitors of indoleamine 2,3-dioxygenase 1 and tryptophan 2,3-dioxygenase” (Bioorg Med Chem Lett, 2020)
Values after ≈ are worked out from the molar mass of the structure shown.

How the values were obtained:
[1] = Solubility of compound in water; type: physicochemical
[2] = target: T1, Indoleamine 2,3-dioxygenase 1 (Homo sapiens, UniProt P14902); assay: Inhibition of IDO1 in human HeLa cells; type: cell-based
[3] = target: T1, Indoleamine 2,3-dioxygenase 1; assay: Inhibition of IDO1 (unknown origin)
[4] = target: T2, Tryptophan 2,3-dioxygenase (Homo sapiens, UniProt P48775); assay: Inhibition of recombinant human TDO expressed in Escherichia coli BL21 using L-Trp as substrate incubated for 30 mins by enzymatic assay
Target sequence in this assay (P48775 whole entry): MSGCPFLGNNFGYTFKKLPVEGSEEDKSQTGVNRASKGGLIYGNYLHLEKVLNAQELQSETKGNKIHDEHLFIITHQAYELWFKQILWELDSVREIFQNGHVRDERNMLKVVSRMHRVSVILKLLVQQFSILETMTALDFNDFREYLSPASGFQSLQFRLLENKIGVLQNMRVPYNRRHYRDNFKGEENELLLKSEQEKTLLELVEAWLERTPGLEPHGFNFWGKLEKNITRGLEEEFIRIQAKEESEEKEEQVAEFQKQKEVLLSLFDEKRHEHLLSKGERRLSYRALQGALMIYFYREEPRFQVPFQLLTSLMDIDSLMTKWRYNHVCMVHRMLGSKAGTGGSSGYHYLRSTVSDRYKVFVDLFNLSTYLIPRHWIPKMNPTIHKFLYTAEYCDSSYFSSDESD

[5] = target: T2, Tryptophan 2,3-dioxygenase; assay: Potency index, ratio of IC50 of LM10 to IC50 of compound for inhibition of TDO (unknown origin)
Target sequence in this assay (P48775 whole entry, looked up): as the sequence (P48775 whole entry) above

[6] = target: T2, Tryptophan 2,3-dioxygenase; assay: Potency index, ratio of IC50 of 8-fluorotryptanthrin to IC50 of compound for inhibition of TDO (unknown origin)
Target sequence in this assay (P48775 whole entry, looked up): as the sequence (P48775 whole entry) above

T1 sequence (P14902 whole entry): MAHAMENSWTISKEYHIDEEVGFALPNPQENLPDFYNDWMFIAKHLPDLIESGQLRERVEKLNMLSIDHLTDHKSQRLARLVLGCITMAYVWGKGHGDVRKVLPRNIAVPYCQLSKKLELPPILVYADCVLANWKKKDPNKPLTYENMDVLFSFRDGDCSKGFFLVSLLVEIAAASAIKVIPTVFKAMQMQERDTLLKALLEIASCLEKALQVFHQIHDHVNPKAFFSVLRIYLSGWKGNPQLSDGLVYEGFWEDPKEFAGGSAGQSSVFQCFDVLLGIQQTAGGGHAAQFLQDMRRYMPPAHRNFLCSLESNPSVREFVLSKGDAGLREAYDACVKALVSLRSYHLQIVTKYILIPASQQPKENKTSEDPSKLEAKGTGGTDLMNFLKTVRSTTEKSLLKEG

solubility [1]	IC50 [2]	IC50 [3]	IC50 [4]	Ratio IC50 [5]	Ratio IC50 [6]	Compound
0.735 µg/mL (≈ 2.02 µM)	20 nM	190 nM	370 nM			CCOC(=O)/C=C/c1ccc2nc3n(c(=O)c2c1)-c1ccc(F)cc1C3=O
0.862 µg/mL (≈ 2.93 µM)	160 nM	460 nM	60 nM	193	16	O=Cc1ccc2nc3n(c(=O)c2c1)-c1ccc(F)cc1C3=O
14.3 µg/mL (≈ 35.1 µM)	1840 nM	570 nM	420 nM			O=C1c2cc(F)ccc2-n2c1nc1ccc(CN3CCCC(C(=O)O)C3)cc1c2=O (stereo not drawn)
1.05 µg/mL (≈ 2.5 µM)	150 nM	1200 nM	990 nM			COC(=O)C1CCN(Cc2ccc3nc4n(c(=O)c3c2)-c2ccc(F)cc2C4=O)CC1
0.69 µg/mL (≈ 2.23 µM)	230 nM	1790 nM	1210 nM			O=C1c2cc(F)ccc2-n2c1nc1ccc(B(O)O)cc1c2=O
0.893 µg/mL (≈ 2.19 µM)	700 nM	460 nM	300 nM			COC(=O)C1CCCN1Cc1ccc2nc3n(c(=O)c2c1)-c1ccc(F)cc1C3=O (stereo not drawn)
1.28 µg/mL (≈ 3.69 µM)	80 nM	780 nM	1130 nM			O=C1c2cc(F)ccc2-n2c1nc1ccc(Cn3ccnn3)cc1c2=O
1.09 µg/mL (≈ 2.58 µM)	370 nM	1430 nM	2870 nM			COC(=O)C1CCCN(Cc2ccc3nc4n(c(=O)c3c2)-c2ccc(F)cc2C4=O)C1 (stereo not drawn)
0.741 µg/mL (≈ 2.78 µM)						O=C1c2cc(F)ccc2-n2c1nc1ccccc1c2=O
16.7 µg/mL (≈ 40.9 µM)	3100 nM	480 nM	450 nM			O=C1c2cc(F)ccc2-n2c1nc1ccc(CN3CCC(C(=O)O)CC3)cc1c2=O
1.12 µg/mL (≈ 3.34 µM)	60 nM	120 nM	30 nM	386	32	O=C(O)/C=C/c1ccc2nc3n(c(=O)c2c1)-c1ccc(F)cc1C3=O
0.625 µg/mL (≈ 1.59 µM)	750 nM	13100 nM	6020 nM			CC1(C)OB(c2ccc3nc4n(c(=O)c3c2)-c2ccc(F)cc2C4=O)OC1(C)C
15.4 µg/mL (≈ 39.1 µM)	3760 nM	550 nM	180 nM			O=C1c2cc(F)ccc2-n2c1nc1ccc(CN3CCCC3C(=O)O)cc1c2=O (stereo not drawn)
